Experimental data published in patent publication US6962922B2, “Alkynylated quinazoline compounds” (Warner-Lambert Company LLC, priority 2001, dated 2005).

First: Cn1c(=O)n(Cc2ccc(F)c(F)c2)c(=O)c2cc(C#CCn3cncn3)ccc21 [Example 33, 3-(3,4-Difluoro-benzyl)-1-methyl-6-(3-[1,2,4]triazol-1-yl-prop-1-ynyl)-1H-quinazoline-2,4-dione]
Second: Cn1c(=O)n(Cc2ccc(F)c(F)c2)c(=O)c2cc(C#CCn3ccnn3)ccc21 [Example 32, 3-(3,4-Difluoro-benzyl)-1-methyl-6-(3-[1,2,3]triazol-1-yl-prop-1-ynyl)-1H-quinazoline-2,4-dione]
The melting point of the first is higher: 185 to 187 °C for the first, 167 to 169 °C for the second.

Compared with `CN(C)C(=O)c1ccc(Cn2c(=O)c3cc(C#CCc4ccccc4)ccc3n(C)c2=O)cc1` [Example 19, N,N-Dimethyl-4-[1-methyl-2,4-dioxo-6-(3-phenyl-prop-1-ynyl)-1,4-dihydro-2H-quinazolin-3-ylmethyl]-benzamide], `Cn1c(=O)n(Cc2ccc(Cl)cc2)c(=O)c2cc(C#CCc3ccccc3)ccc21` [Example 27, 3-(4-Chloro-benzyl)-1-methyl-6-(3-phenyl-prop-1-ynyl)-1H-quinazoline-2,4-dione] is higher in melting point: 171 to 173 °C for the first, 175 to 176 °C for the second.

`Cn1c(=O)n(Cc2ccc(F)c(F)c2)c(=O)c2cc(C#CCn3ccnc3)ccc21` [Example 29, 3-(3,4-Difluoro-benzyl)-6-(3-imidazol-1-yl-prop-1-ynyl)-1-methyl-1H-quinazoline-2,4-dione] and `Cn1c(=O)n(Cc2ccc(F)c(F)c2)c(=O)c2cc(C#CCc3ccc(Cl)cc3)ccc21` [Example 30, 6-[3-(4-Chloro-phenyl)-prop-1-ynyl]-3-(3,4-difluoro-benzyl)-1-methyl-1H-quinazoline-2,4-dione] fall in the same range of melting point: 163 to 165 °C for the first, 163 to 165 °C for the second.

First: Cn1c(=O)n(Cc2cccc(Cl)c2)c(=O)c2cc(C#CCc3ccc(Cl)cc3)ccc21 [Example 31, 3-(3-Chloro-benzyl)-6-[3-(4-chloro-phenyl)-prop-1-ynyl]-1-methyl-1H-quinazoline-2,4-dione]
Second: Cn1c(=O)n(Cc2cccc(Cl)c2)c(=O)c2cc(C#CCc3ccccc3)ccc21 [Example 25, 3-(3-Chloro-benzyl)-1-methyl-6-(3-phenyl-prop-ynyl)-1H-quinazoline-2,4-dione]
The melting point of the first is higher: 169 to 171 °C for the first, 164 to 166 °C for the second.

First: Cn1c(=O)n(Cc2cccc(F)c2)c(=O)c2cc(C#CCc3ccccc3)ccc21 [Example 26, 3-(3-Fluoro-benzyl)-1-methyl-6-(3-phenyl-prop-1-ynyl)-1H-quinazoline-2,4-dione]
Second: Cn1c(=O)n(Cc2ccc(CO)cc2)c(=O)c2cc(C#CCc3ccccc3)ccc21 [Example 24, 3-(4-Hydroxymethyl-benzyl)-1-methyl-6-(3-phenyl-prop-1-ynyl)-1H-quinazoline-2,4-dione]
The melting point of the first is lower: 143 to 144 °C for the first, 161 to 164 °C for the second.

In the case of `Cn1c(=O)n(Cc2ccc(Cl)c(Cl)c2)c(=O)c2cc(C#CCn3cncn3)ccc21` [Example 34, 3-(3,4-Dichloro-benzyl)-1-methyl-6-(3-[1,2,4]triazol-1-yl-prop-1-ynyl)-1H-quinazoline-2,4-dione], the melting point is reported as 171 to 172 °C.
